{
  "source": "BindingDB's records for doi:10.7270/Q2N301S8",
  "about": "(D3R/Abbott, 2020)",
  "data": [
    {"molecular_target": "Beta-secretase 1 (Homo sapiens, UniProt P56817)", "sequence (P56817 whole entry)": "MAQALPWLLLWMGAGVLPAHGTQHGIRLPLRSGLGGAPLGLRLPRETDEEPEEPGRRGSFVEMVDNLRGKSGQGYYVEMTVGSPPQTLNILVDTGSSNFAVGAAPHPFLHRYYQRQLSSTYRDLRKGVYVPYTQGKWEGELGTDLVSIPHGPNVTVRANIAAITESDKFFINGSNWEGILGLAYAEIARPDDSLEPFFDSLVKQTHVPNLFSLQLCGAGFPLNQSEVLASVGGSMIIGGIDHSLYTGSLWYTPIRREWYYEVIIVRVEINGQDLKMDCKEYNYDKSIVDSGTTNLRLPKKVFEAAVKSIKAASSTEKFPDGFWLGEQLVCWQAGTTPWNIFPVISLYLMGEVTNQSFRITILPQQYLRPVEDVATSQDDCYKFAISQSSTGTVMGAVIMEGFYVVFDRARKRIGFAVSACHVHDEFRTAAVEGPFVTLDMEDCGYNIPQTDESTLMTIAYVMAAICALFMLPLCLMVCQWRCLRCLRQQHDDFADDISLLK", "assay": "D3R2027", "description": "D3R2027", "units": {"IC50": "nM"}, "values": [
      {"molecule": "CC(C)c1cccc(CNC[C@@H](O)[C@@H]2Cc3ccc(O)c(c3)Cc3ccccc3OCC(=O)N[C@@H](C)C(=O)N2)c1", "note": "[BACE_88]", "IC50": 4300},
      {"molecule": "CC(C)c1cccc(CNC[C@@H](O)[C@@H]2C[C@H](C)CC/C=C/CCCNc3cc(CO)cc(c3)C(=O)N2)c1", "note": "[BACE_66]", "IC50": 350},
      {"molecule": "CC(C)c1cccc(CNC[C@@H](O)[C@@H]2C[C@H](C)CCCCCCCC[C@@]3(O)CCC[C@H](C3)C(=O)N2)c1", "note": "[BACE_86]", "IC50": 1700},
      {"molecule": "COCc1cc2cc(c1)C(=O)N[C@H]([C@H](O)CNCc1cccc(C(C)C)c1)C[C@H](C)CCOCCCCN2", "note": "[BACE_10]", "IC50": 570},
      {"molecule": "COCc1cc2cc(c1)C(=O)O[C@@H](CNC1(c3cccc(C(C)C)c3)CC1)[C@@H](N)Cc1cccc(c1)OCCCCN2", "note": "[BACE_144]", "IC50": 6400},
      {"molecule": "CC(C)(C)Cc1cc(C(C)(C)NC[C@@H](O)[C@@H]2Cc3cccc(c3)OCCCCOc3cncc(c3)C(=O)N2)no1", "note": "[BACE_109]", "IC50": 4.5},
      {"molecule": "COCc1cc2cc(c1)C(=O)N[C@H]([C@H](O)CNCc1cnn(CC(C)C)c1)Cc1cccc(c1)OCCCCN2", "note": "[BACE_127]", "IC50": 100},
      {"molecule": "CCCCNC(=O)[C@H](C)C[C@H](O)[C@@H]1C[C@H](C)CCCCCCNc2cc(cc(OC)n2)C(=O)N1", "note": "[BACE_152]", "IC50": 460},
      {"molecule": "CC(C)c1cccc(CNC[C@@H](O)[C@@H]2Cc3cccc(c3)CCCCN(C)c3cccc(c3)C(=O)N2)c1", "note": "[BACE_118]", "IC50": 1000},
      {"molecule": "CC(C)c1cccc(CNC[C@@H](O)[C@@H]2Cc3cccc(c3)OCCCCS(=O)(=O)C[C@@H](C)C(=O)N2)c1", "note": "[BACE_94]", "IC50": 29},
      {"molecule": "Cc1cc2cc(n1)OCCCOCC[C@@H](C)C[C@@H]([C@H](O)CNCc1cccc(C(C)C)c1)NC2=O", "note": "[BACE_54]", "IC50": 1700},
      {"molecule": "CC(C)(NC[C@@H](O)[C@@H]1Cc2cccc(c2)CCCCNc2cncc(c2)C(=O)N1)c1cccc(Br)c1", "note": "[BACE_120]", "IC50": 590},
      {"molecule": "C[C@@H]1CCCCCCCCC(=O)N(C)[C@@H](C)C(=O)N[C@H]([C@H](O)CNC(C)(C)c2nnc(CC(C)(C)C)s2)C1", "note": "[BACE_31]", "IC50": 240},
      {"molecule": "C[C@@H]1CCCCCCCCC(=O)N(C)[C@@H](C)C(=O)N[C@H]([C@H](O)CNC2(c3cc(C(C)(C)C)ccn3)CC2)C1", "note": "[BACE_23]", "IC50": 2},
      {"molecule": "C[C@@H]1CCCCCCCNc2cc(cc(C(=O)N(C)C)c2)C(=O)N[C@H]([C@H](O)CNC2(c3cccc(C(C)(C)C)c3)CC2)C1", "note": "[BACE_68]", "IC50": 1.5},
      {"molecule": "CC(C)c1ccc2c(c1)[C@@H](NC[C@@H](O)[C@@H]1Cc3cccc(c3)OCCCCCC(=O)N(C)[C@@H](C)C(=O)N1)CC(C)(C)O2", "note": "[BACE_91]", "IC50": 2},
      {"molecule": "Cc1cc2cc(c1)OCCCCNc1cc(cc(Cl)n1)C(=O)N[C@H]([C@H](O)CNCc1cccc(C(C)C)c1)C2", "note": "[BACE_105]", "IC50": 68},
      {"molecule": "CC(C)c1cccc(CNC[C@@H](O)[C@@H]2C[C@H](C)CCCCCCCOc3cc(cc(N(C)S(C)(=O)=O)c3)C(=O)N2)c1", "note": "[BACE_82]", "IC50": 11},
      {"molecule": "C[C@@H]1CCCCCCCOc2cc(ccn2)C(=O)N[C@H]([C@H](O)CNC(C)(C)c2cc(CC(C)(C)C)on2)C1", "note": "[BACE_84]", "IC50": 31},
      {"molecule": "C[C@@H]1CCCCCCCCS(=O)(=O)C[C@@H](C)C(=O)N[C@H]([C@H](O)CNC2(c3cccc(C(C)(C)C)c3)CC2)C1", "note": "[BACE_38]", "IC50": 24},
      {"molecule": "CCCCNC(=O)[C@H](C)C[C@H](O)[C@@H]1Cc2cccc(c2)CCCCNc2cc(cc(C)n2)C(=O)N1", "note": "[BACE_155]", "IC50": 240},
      {"molecule": "NC[C@@H](O)[C@@H]1Cc2cccc(c2)OC/C=C\\CNc2cc(cc(Cl)n2)C(=O)N1", "note": "[BACE_104]", "IC50": 40000},
      {"molecule": "C[C@@H]1CCCCCCCOc2cc(cc(-c3ncco3)c2)C(=O)N[C@H]([C@H](O)CNC2(c3cc(C(C)(C)C)ccn3)CC2)C1", "note": "[BACE_81]", "IC50": 8.5},
      {"molecule": "CC(C)c1cccc(CNC[C@@H](O)[C@@H]2C[C@H](C)CCCCCCCCC(=O)N3CCCC[C@H]3C(=O)N2)c1", "note": "[BACE_85]", "IC50": 1500},
      {"molecule": "CCOc1ccc(C(F)(F)F)c(CNC[C@@H](O)[C@@H]2C[C@H](C)CCOCCCCNc3cccc(c3)C(=O)N2)c1", "note": "[BACE_72]", "IC50": 8900},
      {"molecule": "CC(C)(C)Cc1cc(C(C)(C)NC[C@@H](O)[C@@H]2Cc3cccc(c3)OCCCCOc3cc(Cl)cc(c3)C(=O)N2)no1", "note": "[BACE_96]", "IC50": 8},
      {"molecule": "COCc1cc2cc(c1)C(=O)N[C@H]([C@H](O)CN[C@H]1CC(C)(C)Oc3ccc(C(C)C)cc31)Cc1cccc(c1)OCCCCN2", "note": "[BACE_128]", "IC50": 2.5},
      {"molecule": "CC(C)c1ccnc(CNC[C@@H](O)[C@@H]2Cc3cccc(c3)OCCCCOc3cccc(c3)C(=O)N2C)c1", "note": "[BACE_139]", "IC50": 37000},
      {"molecule": "C[C@@H]1CCCCCCCNc2cccc(c2)C(=O)N[C@H]([C@H](O)CNC(C)(C)c2cc(CC(C)(C)C)on2)C1", "note": "[BACE_57]", "IC50": 23},
      {"molecule": "Cc1cc2cc(n1)NCCCCOCC[C@@H](C)C[C@@H]([C@H](O)CNC(C)(C)c1cc(CC(C)(C)C)on1)NC2=O", "note": "[BACE_48]", "IC50": 83},
      {"molecule": "CC(C)c1ccnc(C2(NC[C@@H](O)[C@@H]3Cc4cccc(c4)CCCCNc4cc(cc(Cl)n4)C(=O)N3)CC2)c1", "note": "[BACE_98]", "IC50": 0.5},
      {"molecule": "Cc1cc2cc(n1)OCCCCOc1cccc(c1)C[C@@H]([C@H](O)CNC(C)(C)c1cc(C(C)(C)C)sn1)NC2=O", "note": "[BACE_110]", "IC50": 120},
      {"molecule": "COCc1cc2cc(c1)C(=O)N[C@H]([C@H](O)CNC1(c3cccc(C(C)C)c3)CC1)C/C(C)=C/COCCCCN2", "note": "[BACE_77]", "IC50": 79},
      {"molecule": "CC(C)c1ccnc(CNC[C@@H](O)[C@@H]2Cc3cccc(c3)CCCCOc3cc(cc(N4CCCC4=O)c3)C(=O)N2)c1", "note": "[BACE_136]", "IC50": 27},
      {"molecule": "CC(C)c1cccc(CNC[C@@H](O)[C@@H]2C[C@H](C)CCCCCN([C@H](C)c3ccccc3)C(=O)c3cc(cc(-c4ncco4)c3)C(=O)N2)c1", "note": "[BACE_7]", "IC50": 2},
      {"molecule": "CC(C)c1cccc(C(C)(C)NC[C@@H](O)[C@@H]2C[C@H](C)CCCCCCCNc3cccc(c3)C(=O)N2)c1", "note": "[BACE_55]", "IC50": 540},
      {"molecule": "COc1cc2cc(n1)N(C)CCCCc1cccc(c1)C[C@@H]([C@H](O)CNCc1cccc(C(C)C)c1)NC2=O", "note": "[BACE_99]", "IC50": 89},
      {"molecule": "CC(=O)COc1cc2cc(c1)C(=O)N[C@H]([C@H](O)CNCc1cccc(C(C)C)c1)Cc1cccc(c1)OCCCCO2", "note": "[BACE_16]", "IC50": 34},
      {"molecule": "COCc1cc2cc(c1)C(=O)N[C@H]([C@H](O)CNC1(c3cccc(C(C)(C)C)c3)CC1)C[C@H](C)CCOC/C=C\\CN2", "note": "[BACE_75]", "IC50": 60},
      {"molecule": "CCCCNC(=O)[C@H](C)C[C@H](O)[C@@H]1Cc2ccc(O)c(c2)Cc2ccccc2OCCCCC(=O)N1", "note": "[BACE_158]", "IC50": 4000},
      {"molecule": "CCCCNC(=O)[C@H](C)C[C@H](O)[C@@H]1C[C@H](C)CCCC[C@H](C)CCC(=O)N[C@@H](C)C(=O)N1", "note": "[BACE_147]", "IC50": 920},
      {"molecule": "Cc1cc2cc(n1)OCCCCc1cc(cc(Cl)c1O)C[C@@H]([C@H](O)CNC(C)(C)c1cc(CC(C)(C)C)on1)NC2=O", "note": "[BACE_108]", "IC50": 16},
      {"molecule": "C[C@@H]1CCCCCCCNc2cccc(c2)C(=O)N[C@H]([C@H](O)CNC2(c3cccc(C(C)(C)C)c3)COC2)C1", "note": "[BACE_56]", "IC50": 170},
      {"molecule": "CCCCNC(=O)[C@H](C)C[C@H](O)[C@@H]1C[C@H](C)CCCCC[C@H](C)CCC(=O)N(C)[C@@H](C)C(=O)N1", "note": "[BACE_148]", "IC50": 41},
      {"molecule": "C[C@@H]1CCCCCCCCC(=O)N(C)[C@@H](C)C(=O)N[C@H]([C@H](O)CO)C1", "note": "[BACE_143]", "IC50": 61000},
      {"molecule": "CCN1CCCCC[C@@H](C)C[C@@H]([C@H](O)CNCc2cccc(C(C)C)c2)NC(=O)c2cccc(c2)C1=O", "note": "[BACE_6]", "IC50": 21},
      {"molecule": "COCc1cc2cc(c1)C(=O)N[C@H]([C@H](O)CNC1(c3cccc(C(C)C)c3)CC1)Cc1cccc(c1)OCCCO2", "note": "[BACE_140]", "IC50": 78}
    ]}
  ]
}
